Measurements published in patent publication US20260262643A1, “HERBICIDAL BENZOXAZINES” (FMC CORPORATION, priority 2022, published 2026).

How the values were obtained:
[1] = system: barnyardgrass; test: Test D flooded paddy test; format: in vivo, Echinochloa crus-galli; settings: 250 g ai/ha, applied to paddy water, visual rating after 13 to 14 days, scale 0 to 100 (0 no effect, 100 complete control)
How it was run: (§1)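 At the 2-leaf stage, floodwater 3 cm deep received the test compound; that depth persisted throughout. Plants scored visually 13 to 14 days on, 0 (no effect) to 100 (complete control), dash indicating no result.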

[2] = system: blackgrass; test: Test C preemergence; format: in vivo, Alopecurus myosuroides; settings: 0 to 100 scale (0 no effect, 100 complete control); for Plant response rating, Blackgrass: Preemergence, 500 g ai/ha, visual rating after 10 days; for Blackgrass plant response rating: Test C, preemergence, 125 g ai/ha
How it was run: (§2)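 Visual injury score, 0–100 (100 = complete control), taken 10 days after treatment relative to untreated controls. Pre: directed spray onto soil over sown seeds. Post: foliar spray at one- to two-leaf stage, 2–10 cm. Solvent/surfactant formulation; loam–sand soil; greenhouse.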

[3] = system: blackgrass; test: Test C postemergence; format: in vivo, Alopecurus myosuroides; settings: 10 days
How it was run: as §2

[4] = system: soybean; test: Test C preemergence; format: in vivo, Glycine max; settings: 0 to 100 scale (0 no effect, 100 complete control); for Plant response rating, Soybean: Preemergence, 500 g ai/ha, visual rating after 10 days; for Soybean plant response rating: Test C, preemergence, 125 g ai/ha
How it was run: as §2

[5] = system: barnyardgrass; test: Test C postemergence; format: in vivo, Echinochloa crusgalli; settings: 10 days
How it was run: as §2

[6] = system: corn; test: Test C postemergence; format: in vivo, Zea mays; settings: 10 days
How it was run: as §2

[7] = system: oat, wild; test: Test C postemergence; format: in vivo, Avena fatua; settings: 10 days
How it was run: as §2

[8] = system: corn; test: Test C preemergence; format: in vivo, Zea mays; settings: 0 to 100 scale (0 no effect, 100 complete control); for Plant response rating, Corn: Preemergence, 500 g ai/ha, visual rating after 10 days; for Corn plant response rating: Test C, preemergence, 125 g ai/ha
How it was run: as §2

[9] = system: barnyardgrass; test: Test C preemergence; format: in vivo, Echinochloa crusgalli; settings: 0 to 100 scale (0 no effect, 100 complete control); for Plant response rating, Barnyardgrass: Preemergence, 500 g ai/ha, visual rating after 10 days; for Barnyardgrass plant response rating: Test C, preemergence, 125 g ai/ha
How it was run: as §2

[10] = system: green foxtail; test: Test C preemergence; format: in vivo, Setaria viridis; settings: 0 to 100 scale (0 no effect, 100 complete control); for Plant response rating, Foxtail, Green: Preemergence, 500 g ai/ha, visual rating after 10 days; for Foxtail, Green plant response rating: Test C, preemergence, 125 g ai/ha
How it was run: as §2

[11] = system: kochia; test: Test C preemergence; format: in vivo, Bassia scoparia; settings: 0 to 100 scale (0 no effect, 100 complete control); for Plant response rating, Kochia: Preemergence, 500 g ai/ha, visual rating after 10 days; for Kochia plant response rating: Test C, preemergence, 125 g ai/ha
How it was run: as §2

[12] = system: sedge, umbrella; test: Test D flooded paddy test; format: in vivo, Cyperus difformis; settings: 250 g ai/ha, applied to paddy water, visual rating after 13 to 14 days, scale 0 to 100 (0 no effect, 100 complete control)
How it was run: as §1

[13] = system: green foxtail; test: Test C postemergence; format: in vivo, Setaria viridis; settings: 10 days
How it was run: as §2

[14] = system: pigweed, palmer; test: Test C preemergence; format: in vivo, Amaranthus palmeri; settings: 0 to 100 scale (0 no effect, 100 complete control); for Plant response rating, Pigweed, Palmer: Preemergence, 500 g ai/ha, visual rating after 10 days; for Pigweed, Palmer plant response rating: Test C, preemergence, 125 g ai/ha
How it was run: as §2

[15] = system: pigweed, palmer; test: Test C postemergence; format: in vivo, Amaranthus palmeri; settings: 10 days
How it was run: as §2

[16] = system: ryegrass, Italian; test: Test C preemergence; format: in vivo, Lolium multiflorum; settings: 0 to 100 scale (0 no effect, 100 complete control); for Plant response rating, Ryegrass, Italian: Preemergence, 500 g ai/ha, visual rating after 10 days; for Ryegrass, Italian plant response rating: Test C, preemergence, 125 g ai/ha
How it was run: as §2

[17] = system: wheat; test: Test C postemergence; format: in vivo, Triticum aestivum; settings: 10 days
How it was run: as §2

[18] = system: ducksalad; test: Test D flooded paddy test; format: in vivo, Heteranthera limosa; settings: 250 g ai/ha, applied to paddy water, visual rating after 13 to 14 days, scale 0 to 100 (0 no effect, 100 complete control)
How it was run: as §1

[19] = system: soybean; test: Test C postemergence; format: in vivo, Glycine max; settings: 10 days
How it was run: as §2

[20] = system: ragweed; test: Test C preemergence; format: in vivo, Ambrosia artemisiifolia; settings: 0 to 100 scale (0 no effect, 100 complete control); for Plant response rating, Ragweed: Preemergence, 500 g ai/ha, visual rating after 10 days; for Ragweed plant response rating: Test C, preemergence, 125 g ai/ha
How it was run: as §2

[21] = system: rice; test: Test D flooded paddy test; format: in vivo, Oryza sativa; settings: 250 g ai/ha, applied to paddy water, visual rating after 13 to 14 days, scale 0 to 100 (0 no effect, 100 complete control)
How it was run: as §1

[22] = system: kochia; test: Test C postemergence; format: in vivo, Bassia scoparia; settings: 10 days
How it was run: as §2

[23] = system: ragweed; test: Test C postemergence; format: in vivo, Ambrosia artemisiifolia; settings: 10 days
How it was run: as §2

[24] = system: ryegrass, Italian; test: Test C postemergence; format: in vivo, Lolium multiflorum; settings: 10 days
How it was run: as §2

[25] = system: horseweed; test: Test C postemergence; format: in vivo, Erigeron canadensis; settings: 10 days
How it was run: as §2

[26] = system: oat, wild; test: Test C preemergence; format: in vivo, Avena fatua; settings: 0 to 100 scale (0 no effect, 100 complete control); for Plant response rating, Oat, Wild: Preemergence, 500 g ai/ha, visual rating after 10 days
How it was run: as §2

[27] = system: wheat; test: Test C preemergence; format: in vivo, Triticum aestivum; settings: 0 to 100 scale (0 no effect, 100 complete control); for Plant response rating, Wheat: Preemergence, 500 g ai/ha, visual rating after 10 days; for Wheat plant response rating: Test C, preemergence, 125 g ai/ha
How it was run: as §2

[28] = 125 g ai/ha, postemergence, 0 to 100 scale, 0 no effect, 100 complete control
[29] = Postemergence, 500 g ai/ha, visual 0 to 100 scale (0 no effect, 100 complete control)

## COc1cc(C(=O)N2C[C@H](C)Oc3c(Cl)cccc32)cc(-n2cnc(C(C)C)n2)c1 [Compound 212]
[1]
  Plant response rating, Barnyardgrass (Flood): 25
[2]
  Plant response rating, Blackgrass: 90
  Blackgrass plant response rating: 60
[3]; [28]
  Plant response rating, Blackgrass: 50
[3]; [29]
  Plant response rating, Blackgrass: 100
[4]
  Plant response rating, Soybean: 100
  Soybean plant response rating: 90
[5]; [28]
  Plant response rating, Barnyardgrass: 30
[5]; [29]
  Plant response rating, Barnyardgrass: 50
[6]; [28]
  Plant response rating, Corn: 20
[6]; [29]
  Plant response rating, Corn: 90
[7]; [28]
  Plant response rating, Oat, Wild: 40
[7]; [29]
  Plant response rating, Oat, Wild: 80
[8]
  Plant response rating, Corn: 70
  Corn plant response rating: 20
[9]
  Plant response rating, Barnyardgrass: 100
  Barnyardgrass plant response rating: 80
[10]
  Plant response rating, Foxtail, Green: 100
  Foxtail, Green plant response rating: 100
[11]
  Plant response rating, Kochia: 90
  Kochia plant response rating: 90
[12]
  Plant response rating, Sedge, Umbrella (Flood): 98
[13]; [28]
  Plant response rating, Foxtail, Green: 80
[13]; [29]
  Plant response rating, Foxtail, Green: 90
[14]
  Plant response rating, Pigweed, Palmer: 100
  Pigweed, Palmer plant response rating: 100
[15]; [28]
  Plant response rating, Pigweed, Palmer: 90
[15]; [29]
  Plant response rating, Pigweed, Palmer: 90
[16]
  Plant response rating, Ryegrass, Italian: 100
  Ryegrass, Italian plant response rating: 90
[17]; [28]
  Plant response rating, Wheat: 20
[17]; [29]
  Plant response rating, Wheat: 80
[18]
  Plant response rating, Ducksalad (Flood): 95
[19]; [28]
  Plant response rating, Soybean: 100
[19]; [29]
  Plant response rating, Soybean: 100
[20]
  Plant response rating, Ragweed: 50
  Ragweed plant response rating: 0
[21]
  Plant response rating, Rice (Flood): 40
[22]; [28]
  Plant response rating, Kochia: 80
[22]; [29]
  Plant response rating, Kochia: 90
[23]; [28]
  Plant response rating, Ragweed: 20
[23]; [29]
  Plant response rating, Ragweed: 70
[24]; [28]
  Plant response rating, Ryegrass, Italian: 50
[24]; [29]
  Plant response rating, Ryegrass, Italian: 70
[25]; [28]
  Plant response rating, Horseweed: 0
[25]; [29]
  Plant response rating, Horseweed: 50
[26]
  Plant response rating, Oat, Wild: 90
[26]; Test C, preemergence, 125 g ai/ha
  Oat, Wild plant response rating: 70
[27]
  Plant response rating, Wheat: 30
  Wheat plant response rating: 40

## C[C@H]1CN(C(=O)c2cccc(-c3ncccn3)c2)c2cccc(Cl)c2O1 [Compound 203]
[1]
  Plant response rating, Barnyardgrass (Flood): 0
[2]
  Plant response rating, Blackgrass: 0
  Blackgrass plant response rating: 0
[3]; [28]
  Plant response rating, Blackgrass: 0
[3]; [29]
  Plant response rating, Blackgrass: 0
[4]
  Plant response rating, Soybean: 0
  Soybean plant response rating: 0
[5]; [28]
  Plant response rating, Barnyardgrass: 0
[5]; [29]
  Plant response rating, Barnyardgrass: 0
[6]; [28]
  Plant response rating, Corn: 0
[6]; [29]
  Plant response rating, Corn: 10
[7]; [28]
  Plant response rating, Oat, Wild: 0
[7]; [29]
  Plant response rating, Oat, Wild: 10
[8]
  Plant response rating, Corn: 0
  Corn plant response rating: 0
[9]
  Plant response rating, Barnyardgrass: 0
  Barnyardgrass plant response rating: 0
[10]
  Plant response rating, Foxtail, Green: 60
  Foxtail, Green plant response rating: 20
[11]
  Plant response rating, Kochia: 30
  Kochia plant response rating: 0
[12]
  Plant response rating, Sedge, Umbrella (Flood): 0
[13]; [28]
  Plant response rating, Foxtail, Green: 0
[13]; [29]
  Plant response rating, Foxtail, Green: 10
[14]
  Plant response rating, Pigweed, Palmer: 70
  Pigweed, Palmer plant response rating: 20
[15]; [28]
  Plant response rating, Pigweed, Palmer: 0
[15]; [29]
  Plant response rating, Pigweed, Palmer: 40
[16]
  Plant response rating, Ryegrass, Italian: 20
  Ryegrass, Italian plant response rating: 0
[17]; [28]
  Plant response rating, Wheat: 0
[17]; [29]
  Plant response rating, Wheat: 10
[18]
  Plant response rating, Ducksalad (Flood): 0
[19]; [28]
  Plant response rating, Soybean: 100
[19]; [29]
  Plant response rating, Soybean: 100
[20]
  Plant response rating, Ragweed: 0
  Ragweed plant response rating: 0
[21]
  Plant response rating, Rice (Flood): 0
[22]; [28]
  Plant response rating, Kochia: 0
[22]; [29]
  Plant response rating, Kochia: 40
[23]; [28]
  Plant response rating, Ragweed: 0
[23]; [29]
  Plant response rating, Ragweed: 20
[24]; [28]
  Plant response rating, Ryegrass, Italian: 0
[24]; [29]
  Plant response rating, Ryegrass, Italian: 0
[25]; [28]
  Plant response rating, Horseweed: 0
[25]; [29]
  Plant response rating, Horseweed: 0
[26]
  Plant response rating, Oat, Wild: 0
[27]
  Plant response rating, Wheat: 0
  Wheat plant response rating: 0
